From patent US20070249556A1, “METHOD OF TREATING INFLAMMATION” (priority 2006, published 2007) come the findings set out here.

Test [1] concerns neutrophils. Kind of test: LPS model of acute pulmonary inflammation in rat. Type of test: in vivo. The source says:
The administration of lipopolysaccharides (LPS) from gram-negative bacteria cell walls to the lungs of rats results in a rapid increase in the total number of leukocytes in the lumen of the lungs. The increase of neutrophils in the lung in the LPS model represents the conditions present a patients with chronic respiratory diseases such as cystic fibrosis, chronic bronchitis, emphysema, and certain subtypes of asthma. The LPS model of acute pulmonary inflammation is a well-established model for testing compounds having potential activities in treating inflammatory airway diseases.
Compound 11 (35 mg/kg) or vehicle (0.5% aqueous methylcellulose) was orally administered to groups of rats 15 minutes prior to pulmonary aerosolized LPS (˜2 micrograms/rat) or placebo (air) exposure (20 minute exposure) and 2.5 and 5 hours following the initial oral administration. Eight hours after pulmonary administration of aerosolized LPS, the lungs were lavaged to obtain bronchoalveolar lavage fluid, containing accumulated leukocytes.

The test system of test [2] is neutrophils. Kind of test: Inhibition of neutrophil chemotaxis (Boyden type chemotaxis chamber). The settings on record: isolated neutrophils, chemoattractant in lower chamber, one to three hours at 37 C, effective concentrations of inhibitor. It is filed as cell-based, human. How it is done:
Neutrophils were isolated from peripheral blood donated by healthy volunteers. Twenty milliliters of whole blood containing ACD ([…]) as an anticoagulant was layered over twenty milliliters Ficoll-Pacque Plus (Stem Cell Technologies, Vancouver, BC) and centrifuged for 45 minutes at 1500 rpm. Following centrifugation, the red blood cell layer (also containing the granulocytes) at the bottom of the tube was retained in the centrifugation tube while the top layers were removed. The red blood cell and granulocytes were combined with an equal volume of 3% Dextran 500 (Amersham Biosciences, Uppsala, Sweden) and mixed gently. The red blood cells were allowed to sediment for 30 minutes. […] The cells were resuspended in Hank's Balanced Salt Solution (HBSS, Invitrogen, Grand Island, N.Y.), and counted on a hemacytometer. […] Cell viability was determined through trypan blue exclusion and was greater than 95%. […]
Chemoattractant compounds (e.g. fMLP) are prepared as 20 mM stock solutions and dissolved in either DMSO or water. […] The number of migrated cells is determined by microscopy and counting the number of cells per high powered field.
Inhibitors of neutrophil chemotaxis are identified using a Boyden type chemotaxis chamber. […] The number of migrated cells is determined by microscopy and counting the number of cells per high powered field.

Take `CCNC(=O)Nc1ncnc2c1ncn2C1OC(CCC(=O)O)C2OC(/C=C/c3ccccc3)OC21` (stereo not drawn) [Compound 11, trans-3-{6-[6-(3-ethyl-ureido)-purin-9-yl]-2-styryl-tetrahydro-furo[3,4-d][1,3]dioxol-4-yl}-propionic acid]: in the test on neutrophils [1] (rats treated with compound compared with animals not receiving it, acute model of pulmonary inflammation), the “number of neutrophils found in the lumen of the lungs (FIG. 1)” value is recorded as “significant reduction”. Also, the “decrease in the number of neutrophils recovered in the lavage fluid” value with neutrophils [1] (rats, 35 mg/kg oral 15 min prior to aerosolized LPS and 2.5 and 5 hours after first dose, lavage 8 hours after LPS, vs vehicle and LPS, p<0.001) stood at 56.6%. Further, the “number of migrated neutrophils” value in the test with neutrophils [2] is “significant decrease”.
